The results in this text go back to publication PMC4513294, “L-Asparaginase from Streptomyces griseus NIOT-VKMA29: optimization of process variables using factorial designs and molecular characterization of L-asparaginase gene” (Scientific Reports, 2015).

The target of the experiment is T1, L-asparaginase (ansA) (Streptomyces griseus, UniProt Q54237).
T1 construct: gene orf4; full-length ORF (987 bp, 328 residues, 33721 Da) in pQE30, expressed in E. coli M15(pREP4); unpurified expressed cells; 34 kDa band on SDS-PAGE
T1 sequence (Q54237 1-328): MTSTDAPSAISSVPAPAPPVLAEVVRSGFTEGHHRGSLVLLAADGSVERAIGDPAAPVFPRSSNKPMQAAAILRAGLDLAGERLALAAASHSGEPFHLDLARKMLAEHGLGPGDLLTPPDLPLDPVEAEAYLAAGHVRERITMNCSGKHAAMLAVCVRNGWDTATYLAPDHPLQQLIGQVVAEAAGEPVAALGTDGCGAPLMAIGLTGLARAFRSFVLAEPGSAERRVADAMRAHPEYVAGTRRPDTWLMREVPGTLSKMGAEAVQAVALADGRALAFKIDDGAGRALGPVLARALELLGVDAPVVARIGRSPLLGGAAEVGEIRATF
Briefly: ammonia release, Nesslerization. The conditions noted are these: recombinant E. coli M15 expressed cells compared with control cells; host background activity present. The format is cell-based.

SMILES strings stand for the structures.

Regarding `NC(=O)C[C@H](N)C(=O)O` [L-asparagine], the “ammonia release, Nesslerization” value was “The expression of asparaginase biosynthetic gene was confirmed by Nesslerization assay”.
